Reference: ChEMBL document CHEMBL4177562, “Synthetic ligand promotes gene expression by affecting GC sequence in promoter” (2017)
Calls of active or inactive are those of the source. The calls are words filed in the database; no cut-off is given here.

Columns and labels:
HeLa [1] = assay: Downregulation of peroxisome-related genes (GO:0005777) in human HeLa cells measured at 12 hrs; type: functional
HeLa [2] = assay: Upregulation of microtubule cytoskeleton-related genes (GO:0015630) in human HeLa cells measured at 24 hrs; type: functional
HeLa [3] = assay: Downregulation of mitochondrial matrix-related genes (GO:0005759) in human HeLa cells measured at 12 hrs; type: functional
[4] = Binding affinity to AAAA of 5'-Biotinylated-dCAG CGT GTG GTT TTA AAATTT ACC ACA CGC TG-3' (unknown origin) at 1.25 to 20 nM after 30 secs by SPR analysis
HeLa [5] = assay: Downregulation of primary cilium-related genes (GO:0072372) in human HeLa cells measured at 12 hrs; type: functional
[6] = Binding affinity to CGGT of 5'-Biotinylated-dCAG CGT GTG GTT TTC GGTTTT ACC ACA CGC TG-3' (unknown origin) after 30 secs by SPR analysis
HeLa [7] = assay: Downregulation of CERS5 mRNA expression in human HeLa cells at 0.1 uM after 24 hrs by RT-qPCR analysis; type: functional, cell-based
HeLa [8] = assay: Upregulation of OASL mRNA expression in human HeLa cells at 0.1 uM after 24 hrs by RT-qPCR analysis; type: functional, cell-based
[9] = Binding affinity to TGGC of 5'-Biotinylated-dCAG CGT GTG GTT TTT GGCTTT ACC ACA CGC TG-3' (unknown origin) after 30 secs by SPR analysis
HeLa [10] = assay: Upregulation of GCNA mRNA expression in human HeLa cells at 0.1 uM after 24 hrs by RT-qPCR analysis; type: functional, cell-based
HeLa [11] = assay: Upregulation of cytoplasm-related genes (GO:0005737) in human HeLa cells measured at 12 hrs; type: functional
HeLa [12] = assay: Upregulation of cytoplasm-related genes (GO:0005737) in human HeLa cells measured at 24 hrs; type: functional
HeLa [13] = assay: Downregulation of apical plasma membrane-related genes (GO:0016324) in human HeLa cells measured at 12 to 24 hrs; type: functional
HeLa [14] = assay: Downregulation of proteinaceous extracellular matrix-related genes (GO:0005578) in human HeLa cells measured at 24 hrs; type: functional
HeLa [15] = assay: Upregulation of negative regulation of inclusion body assembly-related genes (GO:0090084) in human HeLa cells measured at 12 hrs; type: functional
[16] = Binding affinity to TCTT of 5'-Biotinylated-dCAG CGT GTG GTT TTT CTTTTT ACC ACA CGC TG-3' (unknown origin) at 1.25 to 20 nM after 30 secs by SPR analysis
[17] = Binding affinity to TTTA of 5'-Biotinylated-dCAG CGT GTG GTT TTT TTATTT ACC ACA CGC TG-3' (unknown origin) at 1.25 to 20 nM after 30 secs by SPR analysis
HeLa [18] = assay: Downregulation of extracellular region-related genes (GO:0005576) in human HeLa cells measured at 24 hrs; type: functional
HeLa [19] = assay: Upregulation of cytoplasm-related genes (GO:0005737) in human HeLa cells measured at 12 to 24 hrs; type: functional
HeLa [20] = assay: Downregulation of progesterone metabolic process-related genes (GO:0042448) in human HeLa cells measured at 24 hrs; type: functional
[21] = Binding affinity to GGGG of 5'-Biotinylated-dCAG CGT GTG GTT TTG GGGTTT ACC ACA CGC TG-3' (unknown origin) after 30 secs by SPR analysis
HeLa [22] = assay: Downregulation of skin development-related genes (GO:0043588) in human HeLa cells measured at 12 to 24 hrs; type: functional
HeLa [23] = assay: Upregulation of mitotic nuclear division-related genes (GO:0007067) in human HeLa cells measured at 24 hrs; type: functional
HeLa [24] = assay: Upregulation of NBPF10 mRNA expression in human HeLa cells at 0.1 uM after 24 hrs by RT-qPCR analysis; type: functional, cell-based
HeLa [25] = assay: Downregulation of serine C-palmitoyltransferase complex-related genes (GO:0017059) in human HeLa cells measured at 12 hrs; type: functional
HeLa [26] = assay: Upregulation of spindle midzone-related genes (GO:0051233) in human HeLa cells measured at 12 to 24 hrs; type: functional
HeLa [27] = assay: Upregulation of nucleolus-related genes (GO:0005730) in human HeLa cells measured at 24 hrs; type: functional
HeLa [28] = assay: Downregulation of cell periphery-related genes (GO:0071944) in human HeLa cells measured at 24 hrs; type: functional
HeLa [29] = assay: Upregulation of nucleoplasm-related genes (GO:0005654) in human HeLa cells measured at 12 hrs; type: functional
[30] = Binding affinity to GCGG of 5'-Biotinylated-dCAG CGT GTG GTT TTG C(Me)GGTTT ACC ACA CGC TG-3' (unknown origin) at 1.25 to 20 nM after 30 secs by SPR analysis
[31] = Binding affinity to GCGG of 5'-Biotinylated-dCAG CGT GTG GTT TTG CGGTTT ACC ACA CGC TG-3' (unknown origin) after 30 secs by SPR analysis
HeLa [32] = assay: Upregulation of spindle midzone-related genes (GO:0051233) in human HeLa cells measured at 24 hrs; type: functional
HeLa [33] = assay: Downregulation of STK39 mRNA expression in human HeLa cells at 0.1 uM after 24 hrs by RT-qPCR analysis; type: functional, cell-based
HeLa [34] = assay: Upregulation of transcription/DNA-templated-related genes (GO:0006351) in human HeLa cells measured at 12 hrs; type: functional
[35] = Binding affinity to ATTT of 5'-Biotinylated-dCAG CGT GTG GTT TTA TTTTTT ACC ACA CGC TG-3' (unknown origin) at 1.25 to 20 nM after 30 secs by SPR analysis
HeLa [36] = assay: Downregulation of COQ9 mRNA expression in human HeLa cells at 0.1 uM after 24 hrs by RT-qPCR analysis; type: functional, cell-based
HeLa [37] = assay: Upregulation of SULT4A1 mRNA expression in human HeLa cells at 0.1 uM after 24 hrs by RT-qPCR analysis; type: functional, cell-based
HeLa [38] = assay: Downregulation of oxidation-reduction process-related genes (GO:0055114) in human HeLa cells measured at 12 to 24 hrs; type: functional; design: scale not given: the % may be the effect or the level left
HeLa [39] = assay: Upregulation of nucleus-related genes (GO:0005634) in human HeLa cells measured at 12 hrs; type: functional
[40] = Binding affinity to TTTT of 5'-Biotinylated-dCAG CGT GTG GTT TTT TTTTTT ACC ACA CGC TG-3' (unknown origin) at 1.25 to 20 nM after 30 secs by SPR analysis
[41] = Binding affinity to CGGG of 5'-Biotinylated-dCAG CGT GTG GTT TTC GGGTTT ACC ACA CGC TG-3' (unknown origin) after 30 secs by SPR analysis
HeLa [42] = assay: Downregulation of ciliary tip-related genes (GO:0097542) in human HeLa cells measured at 12 hrs; type: functional
HeLa [43] = assay: Upregulation of IFIT2 mRNA expression in human HeLa cells at 0.1 uM after 24 hrs by RT-qPCR analysis; type: functional, cell-based
HeLa [44] = assay: Downregulation of extracellular exosome-related genes (GO:0070062) in human HeLa cells measured at 24 hrs; type: functional
HeLa [45] = assay: Upregulation of positive regulation of cytokinesis-related genes (GO:0032467) in human HeLa cells measured at 12 to 24 hrs; type: functional
[46] = Binding affinity to GGGC of 5'-Biotinylated-dCAG CGT GTG GTT TTG GGCTTT ACC ACA CGC TG-3' (unknown origin) after 30 secs by SPR analysis
[47] = Binding affinity to CACA of 5'-Biotinylated-dCAG CGT GTG GTT TTC ACATTT ACC ACA CGC TG-3' (unknown origin) at 1.25 to 20 nM after 30 secs by SPR analysis

Cc1ccc2ccc(NC(=O)OCCCN(CCCCCCCCN(CCCOC(=O)Nc3ccc4ccc(C)nc4n3)CCCOC(=O)Nc3ccc4ccc(C)nc4n3)CCCOC(=O)Nc3ccc4ccc(C)nc4n3)nc2n1
Activity (HeLa [1]): 2.14%
Activity (HeLa [2]): 4.62%
Activity (HeLa [3]): 3.74%
Activity [4]: inactive
Activity (HeLa [5]): 2.14%
Activity [6]: Dose-dependent effect
Activity (HeLa [7]): Active
Activity (HeLa [8]): Active
Activity [9]: Dose-dependent effect
Activity (HeLa [10]): Active
Activity (HeLa [11]): 34.56%
Activity (HeLa [12]): 33.85%
Activity (HeLa [13]): 10%
Activity (HeLa [14]): 12.24%
Activity (HeLa [15]): 2.3%
Activity [16]: inactive
Activity [17]: inactive
Activity (HeLa [18]): 22.45%
Activity (HeLa [19]): 33.33%
Activity (HeLa [20]): 4.08%
Activity [21]: Dose-dependent effect
Activity (HeLa [22]): 6.67%
Activity (HeLa [23]): 7.69%
Activity (HeLa [24]): Active
Activity (HeLa [25]): 1.07%
Activity (HeLa [26]): 5.56%
Activity (HeLa [27]): 9.23%
Activity (HeLa [28]): 4.08%
Activity (HeLa [29]): 26.27%
Activity [30]: inactive
Activity [31]: Dose-dependent effect
Activity (HeLa [32]): 3.08%
Activity (HeLa [33]): Active
Activity (HeLa [34]): 20.28%
Activity [35]: inactive
Activity (HeLa [36]): Active
Activity (HeLa [37]): Active
Activity (HeLa [38]): 16.67%
Activity (HeLa [39]): 43.78%
Activity [40]: inactive
Activity [41]: Dose-dependent effect
Activity (HeLa [42]): 1.6%
Activity (HeLa [43]): Active
Activity (HeLa [44]): 24.49%
Activity (HeLa [45]): 5.55%
Activity [46]: Dose-dependent effect
Activity [47]: inactive
